Experimental findings from ChEMBL document CHEMBL4842309, “(9βH)- and 17-Nor-Pimaranes from Icacina oliviformis” (J Nat Prod, 2021) are described below.

Format in all cases: functional, cell-based
One experiment has as its system MDA-MB-435. Put plainly: Cytotoxicity against human MDA-MB-435 cells assessed as inhibition of cell proliferation measured after 72 hrs by CellTiter 96 AQueous One Solution Cell Proliferation assay. The settings on record: for IC50: MDA-MB-435, 72 h.
Another experiment concerns MDA-MB-231. Nature of the experiment: Cytotoxicity against human MDA-MB-231 cells assessed as inhibition of cell proliferation measured after 72 hrs by CellTiter 96 AQueous One Solution Cell Proliferation assay. The settings on record: for IC50: MDA-MB-231, 72 h.
Another experiment has as its system OVCAR-3. Nature of the experiment: Cytotoxicity against human OVCAR-3 cells assessed as inhibition of cell proliferation measured after 72 hrs by CellTiter 96 AQueous One Solution Cell Proliferation assay. The following applies: for IC50: OVCAR-3, 72 h.
In another experiment the test system is HT-29. Put plainly: Cytotoxicity against human HT-29 cells measured after 72 hrs by CellTiter 96 AQueous One Solution Cell Proliferation assay. The settings on record: HT-29, 72 h.
Another experiment concerns A2780. Put plainly: Cytotoxicity against human A2780 cells assessed as reduction in cell viability incubated for 72 hrs by MTT assay. The settings on record: A2780, 72 h. On the technique in general: Formazan colour is commonly taken as a measure of viable cells.
The subject of a further experiment is HL-60. Nature of the experiment: Cytotoxicity against human HL-60 cells assessed as reduction in cell viability incubated for 72 hrs by MTT assay. The following applies: HL-60, 72 h.
Another experiment deals with PC-3. Put plainly: Cytotoxicity against human PC-3 cells assessed as reduction in cell viability incubated for 72 hrs by MTT assay. The settings on record: PC-3, 72 h.
For a further experiment, the system named is HepG2. Put plainly: Cytotoxicity against human HepG2 cells assessed as reduction in cell viability incubated for 72 hrs by MTT assay. The settings on record: HepG2, 72 h.
A further experiment concerns SF-295. Put plainly: Cytotoxicity against human SF-295 cells assessed as reduction in cell viability incubated for 72 hrs by MTT assay. The following applies: SF-295, 72 h.
For another experiment, the system named is HCT-116. Nature of the experiment: Cytotoxicity against human HCT-116 cells assessed as reduction in cell viability incubated for 72 hrs by MTT assay. The settings on record: HCT-116, 72 h.

For orientation: IC50 means the midpoint of a concentration-inhibition curve.

Calls of active or inactive are those of the source. The calls are words filed in the database; no cut-off is given here.

Regarding `CO[C@@]12OC[C@@H](O)[C@]1(C)CC[C@@H]1C2=C[C@H]2OC(=O)[C@]3(C)[C@H]2[C@]12CC[C@@]3(O)OC2`, the 50% inhibitory concentration (IC50) in the experiment on MDA-MB-435 stood at 3.6 µM; in the experiment with MDA-MB-231, 4 µM; in the experiment with OVCAR-3, 6.3 µM.

For `COc1cc2c(c3occc13)C[C@@H](O)[C@@H]1[C@]23CC[C@@H](O[C@@H]2O[C@H](CO)[C@@H](O)[C@H](O)[C@H]2O)[C@@]1(C)C(=O)OC3`, the result with MDA-MB-435, in the experiment with MDA-MB-231 and in the experiment on OVCAR-3 was inactive.

For `COc1cc2c(c3occc13)C[C@H]1OC(=O)[C@]3(C)[C@H]1[C@@]21CO[C@]3(O)[C@@H](O[C@@H]2O[C@H](CO)[C@@H](O)[C@H](O)[C@H]2O)C1`, the outcome with MDA-MB-435, in the experiment with MDA-MB-231 and in the experiment with OVCAR-3 was inactive.

With `C[C@@]12CC[C@@H]3C(=C[C@H]4OC(=O)[C@]5(C)[C@H]4[C@]34CC[C@@]5(O)OC4)[C@]1(O)OC[C@H]2O`, the 50% inhibitory concentration (IC50) with MDA-MB-435 came to 2.8 µM; in the experiment with MDA-MB-231, 3.4 µM; in the experiment with OVCAR-3, 5.6 µM; in the experiment with HT-29 it was 4.2 µM; in the experiment on A2780, 1.7 µM.

On to `C[C@@]1([C@H](O)CO)CC[C@@H]2C(=C[C@H]3OC(=O)[C@@]4(C)CCC[C@@]2(C)[C@@H]34)C1`, for which the outcome with MDA-MB-435, in the experiment on MDA-MB-231 and in the experiment with OVCAR-3 was inactive.

For the compound `C[C@@]1(C(=O)CO)CC[C@@H]2C(=C[C@H]3OC(=O)[C@]4(C)[C@H]3[C@]23CC[C@@]4(O)OC3)C1`, the IC50 in the experiment on MDA-MB-435 was 2.3 µM; in the experiment with MDA-MB-231, 2.7 µM; in the experiment with OVCAR-3, 4.4 µM; with A2780 it was 3.9 µM; with HL-60, 2.1 µM; in the experiment with PC-3, 3.6 µM. The IC50 in the experiment on HepG2 was determined as 5.7 µM; in the experiment on SF-295 it was 2.2 µM; with HCT-116, 1.7 µM.
